This is an account of results in US20230093861A1, “RAPAMYCIN ANALOGS AS MTOR INHIBITORS” (Revolution Medicines, Inc., priority 2017, published 2023).

Test [1] relates to P-4E-BP1 (T37/46). Briefly: Cell based AlphaLISA assay, inhibition of P-4E-BP1 (T37/46) (mTORC1 substrate phosphorylation) in MDA-MB-468 cells. The note with it: Homo sapiens, MDA-MB-468, 4 h, AlphaLISA, two to four hours at 37° C., read-out: pIC50 for Inhibition of mTORC1 and mTORC2 Substrate Phosphorylation, P-4E-BP1-(T37/46) (converted). An outline of the steps: (§1)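 After treatment, cells were lysed in the kit's buffer once assay medium was withdrawn. Duplicate Alpha measurements tracked each phospho-epitope, and dose-response data were fitted to IC50 following normalization to control wells.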
Background: In Alpha technology, singlet oxygen from a donor bead excites a nearby acceptor bead.

The test system of test [2] is P-Akt (S473). The experiment in a line: Cell based AlphaLISA assay, inhibition of P-Akt (S473) (mTORC2 substrate phosphorylation) in MDA-MB-468 cells. The note with it: Homo sapiens, MDA-MB-468, 4 h, AlphaLISA, two to four hours at 37° C., read-out: pIC50 for Inhibition of mTORC1 and mTORC2 Substrate Phosphorylation, p-AKT 1/2/3 -(S473) (converted). An outline of the steps:
as §1

Test [3] deals with P-P70S6K (T389). The experiment in a line: Cell based AlphaLISA assay, inhibition of P-P70S6K (T389) (mTORC1 substrate phosphorylation) in MDA-MB-468 cells. The note with it: Homo sapiens, 4 h, AlphaLISA, two to four hours at 37° C., read-out: pIC50 for Inhibition of mTORC1 and mTORC2 Substrate Phosphorylation, P-P70S6K-(T389) (converted). An outline of the steps:
as §1

Each structure is given as a SMILES string.

As to `CO[C@H]1C[C@@H]2CC[C@@H](C)[C@@](O)(O2)C(=O)C(=O)N2CCCC[C@H]2C(=O)O[C@H]([C@H](C)C[C@@H]2CC[C@H](n3cc(-c4cnc(N5CCN(c6ncc(C(=O)NCCOCCOCCOCCC(=O)NCCCCn7nc(-c8cc9cc(O)ccc9[nH]8)c8c(N)ncnc87)cn6)CC5)nc4)nn3)[C@H](OC)C2)CC(=O)[C@H](C)/C=C(\C)[C@@H](O)[C@@H](OC)C(=O)[C@H](C)C[C@H](C)/C=C/C=C/C=C/1C` [Example 114], the IC50 was > 1000 nM in test [1], > 1000 nM in test [2] and < 1 nM in test [3].

On to `CO[C@H]1C[C@@H]2CC[C@@H](C)[C@@](O)(O2)C(=O)C(=O)N2CCCC[C@H]2C(=O)O[C@H]([C@H](C)C[C@@H]2CC[C@H](n3cc(-c4cnc(N5CCN(c6ncc(C(=O)NCCOCCOCCOCCOCCC(=O)NCCCCn7nc(-c8ccc9oc(N)nc9c8)c8c(N)ncnc87)cn6)CC5)nc4)nn3)[C@H](OC)C2)CC(=O)[C@H](C)/C=C(\C)[C@@H](O)[C@@H](OC)C(=O)[C@H](C)C[C@H](C)/C=C/C=C/C=C/1C` [Example 115], for which the figures for the IC50 in test [1], in test [2] and in test [3] were < 3.16 nM, < 3.16 nM and < 1 nM, respectively.

Turning to `CO[C@H]1C[C@@H]2CC[C@@H](C)[C@@](O)(O2)C(=O)C(=O)N2CCCC[C@H]2C(=O)O[C@H]([C@H](C)C[C@@H]2CC[C@H](n3cc(-c4cnc(N5CCN(c6ncc(C(=O)NCCOCCOCCOCCOCCC(=O)NCCCCn7nc(-c8cc9cc(O)ccc9[nH]8)c8c(N)ncnc87)cn6)CC5)nc4)nn3)[C@H](OC)C2)CC(=O)[C@H](C)/C=C(\C)[C@@H](O)[C@@H](OC)C(=O)[C@H](C)C[C@H](C)/C=C/C=C/C=C/1C` [Example 116], the IC50 was 3.16 to 31.6 nM in test [1], > 1000 nM in test [2] and < 1 nM in test [3].

As to `CO[C@H]1C[C@@H]2CC[C@@H](C)[C@@](O)(O2)C(=O)C(=O)N2CCCC[C@H]2C(=O)O[C@H]([C@H](C)C[C@@H]2CC[C@H](n3cc(-c4cnc(N5CCN(c6ncc(C(=O)NCCOCCOCCOCCOCCC(=O)N7CCc8cc(Cn9nc(-c%10ccc%11oc(N)nc%11c%10)c%10c(N)ncnc%109)ccc8C7)cn6)CC5)nc4)nn3)[C@H](OC)C2)CC(=O)[C@H](C)/C=C(\C)[C@@H](O)[C@@H](OC)C(=O)[C@H](C)C[C@H](C)/C=C/C=C/C=C/1C` [Example 117], the IC50 in test [1] is > 1000 nM; in test [2], > 1000 nM; in test [3], < 1 nM.

With `CO[C@H]1C[C@@H]2CC[C@@H](C)[C@@](O)(O2)C(=O)C(=O)N2CCCC[C@H]2C(=O)O[C@H]([C@H](C)C[C@@H]2CC[C@H](n3cc(-c4cnc(N5CCN(c6ncc(C(=O)NCCOCCOCCOCCOCCOCCC(=O)NCCCCn7nc(-c8ccc9oc(N)nc9c8)c8c(N)ncnc87)cn6)CC5)nc4)nn3)[C@H](OC)C2)CC(=O)[C@H](C)/C=C(\C)[C@@H](O)[C@@H](OC)C(=O)[C@H](C)C[C@H](C)/C=C/C=C/C=C/1C` [Example 118], the IC50 in test [1] is < 3.16 nM; in test [2], 3.16 to 31.6 nM; in test [3] it was < 1 nM.

`CO[C@H]1C[C@@H]2CC[C@@H](C)[C@@](O)(O2)C(=O)C(=O)N2CCCC[C@H]2C(=O)O[C@H]([C@H](C)C[C@@H]2CC[C@H](n3cc(-c4cnc(N5CCN(c6ncc(C(=O)NCCOCCOCCOCCOCCOCCC(=O)NCCCCn7nc(-c8cc9cc(O)ccc9[nH]8)c8c(N)ncnc87)cn6)CC5)nc4)nn3)[C@H](OC)C2)CC(=O)[C@H](C)/C=C(\C)[C@@H](O)[C@@H](OC)C(=O)[C@H](C)C[C@H](C)/C=C/C=C/C=C/1C` [Example 119]: the results for the IC50 in test [1], in test [2] and in test [3] were > 1000 nM, > 1000 nM and < 1 nM, respectively.

As to `CO[C@H]1C[C@@H]2CC[C@@H](C)[C@@](O)(O2)C(=O)C(=O)N2CCCC[C@H]2C(=O)O[C@H]([C@H](C)C[C@@H]2CC[C@H](n3cc(COC(=O)NCCOCCOCCOCCC(=O)NCCOCCOCCC(=O)NCCCCn4nc(-c5ccc6oc(N)nc6c5)c5c(N)ncnc54)nn3)[C@H](OC)C2)CC(=O)[C@H](C)/C=C(\C)[C@@H](O)[C@@H](OC)C(=O)[C@H](C)C[C@H](C)/C=C/C=C/C=C/1C` [Example 120], the IC50 in test [1] was 3.16 to 31.6 nM; in test [2], 31.6 to 1000 nM; in test [3], 1 to 10 nM.

On to `CO[C@H]1C[C@@H]2CC[C@@H](C)[C@@](O)(O2)C(=O)C(=O)N2CCCC[C@H]2C(=O)O[C@H]([C@H](C)C[C@@H]2CC[C@H](n3cc(COC(=O)NCCOCCOCCOCCC(=O)NCCOCCOCCC(=O)NCCCCn4nc(-c5cc6cc(O)ccc6[nH]5)c5c(N)ncnc54)nn3)[C@H](OC)C2)CC(=O)[C@H](C)/C=C(\C)[C@@H](O)[C@@H](OC)C(=O)[C@H](C)C[C@H](C)/C=C/C=C/C=C/1C` [Example 121], for which the results for the IC50 in test [1], in test [2] and in test [3] were 31.6 to 1000 nM, > 1000 nM and 1 to 10 nM, respectively.

For the molecule `CO[C@H]1C[C@@H]2CC[C@@H](C)[C@@](O)(O2)C(=O)C(=O)N2CCCC[C@H]2C(=O)O[C@H]([C@H](C)C[C@@H]2CC[C@H](n3cc(COC(=O)NCCOCCOCCOCCC(=O)NCCOCCOCCOCCC(=O)NCCCCn4nc(-c5ccc6oc(N)nc6c5)c5c(N)ncnc54)nn3)[C@H](OC)C2)CC(=O)[C@H](C)/C=C(\C)[C@@H](O)[C@@H](OC)C(=O)[C@H](C)C[C@H](C)/C=C/C=C/C=C/1C` [Example 122], the IC50 in test [1] was 3.16 to 31.6 nM; in test [2], 3.16 to 31.6 nM; in test [3], 1 to 10 nM.

On to `CO[C@H]1C[C@@H]2CC[C@@H](C)[C@@](O)(O2)C(=O)C(=O)N2CCCC[C@H]2C(=O)O[C@H]([C@H](C)C[C@@H]2CC[C@H](n3cc(COC(=O)NCCOCCOCCOCCC(=O)NCCOCCOCCOCCC(=O)NCCCCn4nc(-c5cc6cc(O)ccc6[nH]5)c5c(N)ncnc54)nn3)[C@H](OC)C2)CC(=O)[C@H](C)/C=C(\C)[C@@H](O)[C@@H](OC)C(=O)[C@H](C)C[C@H](C)/C=C/C=C/C=C/1C` [Example 123], for which the IC50 in test [1] was 3.16 to 31.6 nM; in test [2] it was 31.6 to 1000 nM; in test [3], 1 to 10 nM.

On to `CO[C@H]1C[C@@H]2CC[C@@H](C)[C@@](O)(O2)C(=O)C(=O)N2CCCC[C@H]2C(=O)O[C@H]([C@H](C)C[C@@H]2CC[C@H](n3cc(COC(=O)NCCOCCOCCOCCC(=O)NCCOCCOCCOCCOCCC(=O)NCCCCn4nc(-c5ccc6oc(N)nc6c5)c5c(N)ncnc54)nn3)[C@H](OC)C2)CC(=O)[C@H](C)/C=C(\C)[C@@H](O)[C@@H](OC)C(=O)[C@H](C)C[C@H](C)/C=C/C=C/C=C/1C` [Example 124], for which the IC50 was 3.16 to 31.6 nM in test [1], 3.16 to 31.6 nM in test [2] and 1 to 10 nM in test [3].

Regarding `CO[C@H]1C[C@@H]2CC[C@@H](C)[C@@](O)(O2)C(=O)C(=O)N2CCCC[C@H]2C(=O)O[C@H]([C@H](C)C[C@@H]2CC[C@H](n3cc(COC(=O)NCCOCCOCCOCCOCCC(=O)NCCOCCOCCOCCOCCC(=O)NCCCCn4nc(-c5ccc6oc(N)nc6c5)c5c(N)ncnc54)nn3)[C@H](OC)C2)CC(=O)[C@H](C)/C=C(\C)[C@@H](O)[C@@H](OC)C(=O)[C@H](C)C[C@H](C)/C=C/C=C/C=C/1C` [Example 125], the IC50 in test [1] is 3.16 to 31.6 nM; in test [2] it was 3.16 to 31.6 nM; in test [3] it was 1 to 10 nM.
